Assays:
Format in all cases: functional
Mus musculus [1] = test: Analgesic activity in Mus musculus Swiss albino (mouse) assessed as protection against acetic acid-induced writhing response at 20 mg/kg, po administered 30 min before acetic acid challenge measured at 0.5 hr after challenge
Mus musculus [2] = test: Analgesic activity in Mus musculus Swiss albino (mouse) assessed as protection against acetic acid-induced writhing response at 20 mg/kg, po administered 30 min before acetic acid challenge measured at 1 hr after challenge
Mus musculus [3] = test: Analgesic activity in Mus musculus Swiss albino (mouse) assessed as protection against acetic acid-induced writhing response at 20 mg/kg, po administered 30 min before acetic acid challenge measured at 2 hr after challenge

Row | SMILES | Activity (Mus musculus [1]) [%] | Activity (Mus musculus [2]) [%] | Activity (Mus musculus [3]) [%]
1 | Nc1nc(-c2cccc(Br)c2)cc(-c2cc3ccccc3oc2=O)n1 | 25.94 | 33.52 | 31.57
2 | Nc1nc(-c2ccc(Cl)cc2)cc(-c2cc3ccccc3oc2=O)n1 | 9.49 | 12.35 | 10.8
3 | COc1cccc(-c2cc(-c3cc4ccccc4oc3=O)nc(N)n2)c1 | 46.51 | 53.52 | 49.3
4 | COc1ccccc1-c1cc(-c2cc3ccccc3oc2=O)nc(N)n1 | 35.44 | 35.58 | 33.79
5 | Nc1nc(-c2ccccc2Cl)cc(-c2cc3ccccc3oc2=O)n1 | 8.22 | 12.05 | 11.63
6 | Nc1nc(-c2cccc(Cl)c2)cc(-c2cc3ccccc3oc2=O)n1 | 52.21 | 60.58 | 56.5
7 | Nc1nc(-c2ccc(Br)cc2)cc(-c2cc3ccccc3oc2=O)n1 | 28.16 | 29.41 | 26.59
8 | Nc1nc(-c2ccccc2Br)cc(-c2cc3ccccc3oc2=O)n1 | 23.41 | 30.58 | 27.7
9 | O=C([O-])Cc1ccccc1Nc1c(Cl)cccc1Cl.[Na+] [DICLOFENAC SODIUM] | 91.13 | 96.76 | 93.35

From ChEMBL document CHEMBL3046531, “Analgesic study of novel pyrimidine derivatives linked with coumarin moiety” (2012)
